Measured values taken from the supplement of paper PMC10307832.

Assays:
Assay in all cases: relative viability (nuclei count vs DMSO), 5 days (fraction); higher = more cells survive
Olaparib + Luminespib = compound: O=C(c1cc(Cc2n[nH]c(=O)c3ccccc23)ccc1F)N1CCN(C(=O)C2CC2)CC1 [Olaparib] + CCNC(=O)c1noc(-c2cc(C(C)C)c(O)cc2O)c1-c1ccc(CN2CCOCC2)cc1 [Luminespib] (partner 0.01 µM)
In short: (§1)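 Lung cancer cell lines were seeded in 1536-well plates and dosed by pin tool the next day, with either a single drug or a fixed anchor-drug dose combined with five library-drug doses (not always all listed) spaced in √10 steps. Five days later, one step fixed the cells and stained their nuclei (final 0.05% Triton X-100, 1% formaldehyde, 1 ug/ml Hoechst), and nuclei were counted on 4× images. Relative viability is the nuclei count in treated wells divided by the count in vehicle wells, and each value is the median of duplicate plates.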

Carfilzomib + Navitoclax = compound: CC(C)C[C@H](NC(=O)[C@H](CCc1ccccc1)NC(=O)CN1CCOCC1)C(=O)N[C@@H](Cc1ccccc1)C(=O)N[C@@H](CC(C)C)C(=O)[C@@]1(C)CO1 [Carfilzomib] + CC1(C)CCC(c2ccc(Cl)cc2)=C(CN2CCN(c3ccc(C(=O)NS(=O)(=O)c4ccc(N[C@H](CCN5CCOCC5)CSc5ccccc5)c(S(=O)(=O)C(F)(F)F)c4)cc3)CC2)C1 [Navitoclax] (partner 0.5 µM)
In short: as §1

Crizotinib + Vorinostat = compound: C[C@@H](Oc1cc(-c2cnn(C3CCNCC3)c2)cnc1N)c1c(Cl)ccc(F)c1Cl [Crizotinib] + O=C(CCCCCCC(=O)Nc1ccccc1)NO [Vorinostat] (partner 1 µM)
In short: as §1

Crizotinib + Pictilisib = compound: C[C@@H](Oc1cc(-c2cnn(C3CCNCC3)c2)cnc1N)c1c(Cl)ccc(F)c1Cl [Crizotinib] + CS(=O)(=O)N1CCN(Cc2cc3nc(-c4cccc5[nH]ncc45)nc(N4CCOCC4)c3s2)CC1 [Pictilisib] (partner 1 µM)
In short: as §1

Cell Line | relative viability (Olaparib + Luminespib; first compound 0.08 µM) | relative viability (Olaparib + Luminespib; first compound 0.253 µM) | relative viability (Olaparib + Luminespib; first compound 2.53 µM) | relative viability (Olaparib + Luminespib; first compound 8 µM) | relative viability (Carfilzomib + Navitoclax; first compound 0.001 µM) | relative viability (Carfilzomib + Navitoclax; first compound 0.003162 µM) | relative viability (Carfilzomib + Navitoclax; first compound 0.01 µM) | relative viability (Carfilzomib + Navitoclax; first compound 0.03162 µM) | relative viability (Carfilzomib + Navitoclax; first compound 0.1 µM) | relative viability (Crizotinib + Vorinostat; first compound 0.01 µM) | relative viability (Crizotinib + Vorinostat; first compound 0.03162 µM) | relative viability (Crizotinib + Vorinostat; first compound 0.1 µM) | relative viability (Crizotinib + Vorinostat; first compound 0.3162 µM) | relative viability (Crizotinib + Vorinostat; first compound 1 µM) | relative viability (Crizotinib + Pictilisib; first compound 0.01 µM) | relative viability (Crizotinib + Pictilisib; first compound 0.03162 µM) | relative viability (Crizotinib + Pictilisib; first compound 0.1 µM) | relative viability (Crizotinib + Pictilisib; first compound 0.3162 µM) | relative viability (Crizotinib + Pictilisib; first compound 1 µM)
EPLC-272H | 0.291 | 0.321 | 0.254 | 0.279 | 1.07 | 1.15 | 0.839 | 0.09 | 0.0751 | 0.41 | 0.398 | 0.361 | 0.403 | 0.581 | 0.287 | 0.365 | 0.327 | 0.3 | 0.299
NCI-H23 | 0.229 | 0.211 | 0.2 | 0.186 | 0.797 | 0.799 | 0.987 | 0.227 | 0.152 | 0.465 | 0.648 | 0.596 | – | 0.737 | 0.441 | 0.539 | 0.505 | – | 0.541
H3255 | 0.885 | 0.832 | 0.907 | 0.819 | 0.676 | 0.63 | 0.663 | 0.37 | 0.151 | 0.782 | 0.841 | 0.765 | 0.784 | 0.999 | 0.36 | 0.486 | 0.533 | 0.468 | 0.456
NCI-H1355 | 0.648 | 0.694 | 0.52 | 0.572 | 0.792 | 1.02 | 0.979 | 0.486 | 0.133 | 0.638 | 0.629 | 0.625 | 0.564 | 0.613 | 0.45 | 0.52 | 0.413 | 0.297 | 0.434
UMC-11 | 1.06 | 0.855 | 0.683 | 0.414 | 0.278 | 0.326 | 0.332 | 0.269 | 0.103 | 0.271 | 0.424 | 0.407 | 0.356 | 0.427 | 0.753 | 0.854 | 0.803 | 0.161 | 0.785
NCI-H1395 | 0.633 | 0.533 | 0.62 | 0.447 | 0.964 | 1.24 | 0.995 | 0.481 | 0.347 | 0.602 | 0.827 | 0.794 | 0.53 | 0.554 | 0.621 | 0.557 | 0.73 | 0.906 | 0.542
EMC-BAC-2 | 1.12 | 1.02 | 0.955 | 0.646 | 1.15 | 1.21 | 1.22 | 1.12 | 0.527 | 0.524 | 0.418 | 0.494 | – | 0.365 | 0.514 | 0.536 | 0.527 | 0.305 | 0.52
HCC-44 | 1.44 | 0.984 | 0.449 | 0.411 | 0.94 | 1.01 | 1 | 0.829 | 0.261 | 1.03 | 1.13 | 1.18 | 1.01 | 1.14 | 0.464 | 0.578 | 0.538 | 0.665 | 0.503
PC-3 [JPC-3] | 0.832 | 0.749 | 0.587 | 0.592 | 0.74 | 0.84 | 0.761 | 0.705 | 0.138 | 0.687 | 0.903 | 1.16 | – | 0.71 | 0.687 | 0.804 | 0.722 | 0.705 | 0.709
NCI-H1734 | 0.212 | 0.205 | 0.185 | 0.183 | 0.831 | 1.05 | 0.803 | 0.584 | 0.0981 | 0.866 | 0.787 | 0.784 | – | 0.807 | 0.419 | 0.406 | 0.381 | – | 0.39
HOP-62 | 1 | 0.809 | 0.744 | 0.476 | 1.1 | 1.11 | 0.887 | 0.167 | 0.107 | 0.638 | 0.672 | 0.613 | 0.3 | 0.685 | 0.469 | 0.625 | 0.779 | 0.342 | 0.624
HARA | 1.22 | 0.531 | 0.8 | 0.523 | 1.1 | 1.14 | 1.21 | 0.0941 | 0.0841 | 0.494 | 0.491 | 0.532 | 0.54 | 0.523 | 0.351 | 0.441 | 0.262 | 0.511 | 0.46
NCI-H2023 | 0.647 | 0.724 | 0.629 | 0.379 | 1 | 0.967 | 1.02 | 0.907 | 0.0939 | 0.573 | 0.8 | 0.568 | 0.453 | 0.621 | 0.225 | 0.232 | 0.189 | 0.192 | 0.217
NCI-H1993 | 0.87 | 0.842 | 0.78 | 1.04 | 0.856 | 0.773 | 1.08 | 0.861 | 0.527 | 0.699 | 0.901 | 0.68 | 0.468 | 0.555 | 0.682 | 0.823 | 0.761 | 0.667 | 0.748
NCI-H460 | 0.0349 | 0.0392 | 0.0354 | 0.034 | 1.08 | 1.21 | 1.17 | 0.357 | 0.0107 | 0.709 | 0.69 | 0.688 | 0.852 | 0.722 | 0.4 | 0.349 | 0.302 | 0.309 | 0.314
NCI-H596 | 0.93 | 0.883 | 0.788 | 0.638 | 0.906 | 1.04 | 1.14 | 0.353 | 0.153 | 0.638 | 0.681 | 0.742 | 0.62 | 0.748 | 0.348 | 0.378 | 0.354 | 0.414 | 0.367
NCI-H441 | 0.38 | 0.314 | 0.318 | 0.281 | 0.534 | 0.571 | 0.208 | 0.144 | 0.145 | 0.799 | 0.774 | 0.63 | 0.768 | 0.965 | 0.436 | 0.395 | 0.432 | 0.34 | 0.443
COR-L 105 | 0.736 | 0.782 | 0.595 | 0.565 | 0.885 | 0.628 | 0.643 | 0.353 | 0.298 | 0.824 | 0.96 | 0.696 | 0.858 | 0.893 | 0.353 | 0.386 | 0.39 | 0.354 | 0.403
NCI-H322M | 0.98 | 0.821 | 0.906 | 0.527 | 1.36 | 1.29 | 1.01 | 1.22 | 0.559 | – | 0.884 | 1 | 0.823 | 0.972 | 0.432 | 0.522 | 0.493 | 0.585 | 0.52
HCC-827 | 0.544 | 0.585 | 0.629 | 0.368 | 0.983 | 1.05 | 1.03 | 0.907 | 0.369 | 0.873 | 0.602 | 0.917 | 0.884 | – | 1.1 | 1.03 | 0.943 | 0.96 | 0.961
NCI-H1651 | 0.798 | 0.605 | 0.431 | 0.216 | 1.11 | 1.06 | 0.728 | 0.123 | 0.0777 | 0.572 | 0.424 | 0.582 | 0.398 | 0.61 | 0.437 | 0.65 | 0.514 | 0.559 | 0.572
EKVX | 1.03 | 0.831 | 0.791 | 0.784 | 0.992 | 1 | 1.21 | 0.427 | 0.346 | 0.455 | 0.662 | 0.708 | 0.712 | 0.637 | 0.406 | 0.419 | 0.463 | 0.453 | 0.47
201T | 1.08 | 0.959 | 1.03 | 0.972 | 1.14 | 1.23 | 1.22 | 1.23 | 1.18 | 0.899 | 1.01 | 0.98 | 0.974 | 1.04 | 0.65 | 0.74 | 0.723 | 0.648 | 0.678
NCI-H2228 | 0.146 | 0.132 | 0.145 | 0.117 | 1.06 | 1.56 | 0.788 | 0.699 | 0.0563 | 0.46 | 0.843 | 0.402 | 0.57 | 0.683 | 0.392 | 0.308 | 0.362 | 0.164 | 0.0922
NCI-H2009 | 1.13 | 0.966 | 0.893 | 0.701 | 1.24 | 1.2 | 1.15 | 0.993 | 0.0572 | 0.707 | 0.723 | 0.63 | 0.756 | 0.76 | 0.607 | 0.83 | 0.799 | 0.688 | 0.782
NCI-H1975 | 0.169 | 0.174 | 0.258 | 0.234 | 1.05 | 1.23 | 0.416 | 0.213 | 0.144 | 0.682 | 0.693 | 0.695 | 0.708 | 0.729 | 0.28 | 0.294 | 0.308 | 0.344 | 0.266
NCI-H2347 | 0.43 | 0.615 | 0.398 | 0.259 | 0.698 | 0.931 | 0.733 | 0.512 | 0.235 | 0.551 | 0.606 | 0.671 | 0.534 | 0.536 | 0.624 | 0.69 | 0.551 | 0.731 | 1.05
PC-14 | 0.199 | – | 0.134 | 0.156 | 1 | 1.05 | 1.05 | 0.133 | 0.0977 | 0.632 | 0.792 | 0.693 | 0.608 | 0.784 | 0.772 | 0.775 | 0.708 | 0.8 | –
